Source: paper PMC12299470, “Selection of an Optimal Metabolic Model for Accurately Predicting the Hepatic Clearance of Albumin-Binding-Sensitive Drugs” (Pharmaceuticals, 2025)
Read-outs that look alike come from different tables or passages of the source.

Legend:
[1] = set-up: method as in EMBL-EBI database; conditions: ref EMBL-EBI database, cited from earlier work; for HBA: hydrogen-bond acceptor; for HBD: hydrogen-bond donor
[2] = Fitting of hepatic clearance models (MWSM, WSM, PTM, DM) to IPRL FH vs fu data; conditions: male, Sprague-Dawley, rat, isolated perfused rat liver
Description: (§1) Under this condition, hepatic availability (FH) served as a clear and practical indicator of CLH. […] Based on the principles of the WSM, Equations (3) and (4) were derived by applying Equations (1) and (2), in conjunction with the concept that CLH equals the liver blood flow multiplied by the extraction ratio. Subsequently, data fitting was performed using these formulas.
(§2) Rosuvastatin consistently aligned with the MWSM predictions throughout the experiment.
(§3) The extraction recovery, calibration curves and retention time of each compound are shown in Table S1, Figures S1 and S2, respectively. All available experimental data were included in the analysis. The formula and experimental data were processed by Prism software v10.4.1 (GraphPad Software, Inc) to generate figures and calculate the degree of fit of different models.

[3] = test system: isolated perfused rat liver; assay: as above
Description: as §1, §2, §3

[4] = set-up: method as in PMID 35901930; conditions: fraction unbound in plasma; regression dataset; cited from earlier work
[5] = test system: organic anion-transporting polypeptide; set-up: method as in El-Kattan et al. [36] and DrugBank; conditions: With / Without; ref El-Kattan et al. [36] and DrugBank; cited from earlier work
p-glycoprotein = test system: p-glycoprotein; set-up: method as in El-Kattan et al. [36] and DrugBank; conditions: With / Without; ref El-Kattan et al. [36] and DrugBank; cited from earlier work
human serum albumin = human serum albumin (Homo sapiens, UniProt P02768); assay: Rapid equilibrium dialysis (RED), fraction unbound at various HSA concentrations; type: in vitro ADME; conditions: drug 1 μg/mL in Krebs buffer, 37 °C, read-out: fraction unbound (fu)
Description: The rapid equilibrium dialysis (RED) apparatus and test inserts were purchased from Thermo Fisher Scientific (Rockford, IL, USA). The unbound fraction of each assessed drug was determined using RED. Briefly, a drug was diluted to 1 μg/mL in Krebs buffer containing different concentrations of HSA. Five hundred microliters of the assessed drug and each of the different HSA concentrations were added to the sample chamber of an insert and 750 μL of blank buffer was added to the adjacent chamber. The loaded inserts were then assembled on a Teflon-based plate.

[6] = Krebs buffer with 0% HSA, 0% HSA
[7] = Krebs buffer with 0.1% HSA, 0.1% HSA
[8] = Krebs buffer with 2% HSA, 2% HSA
[9] = Krebs buffer with […] HSA, 0.25% HSA

Chain of human serum albumin (P02768 25-609): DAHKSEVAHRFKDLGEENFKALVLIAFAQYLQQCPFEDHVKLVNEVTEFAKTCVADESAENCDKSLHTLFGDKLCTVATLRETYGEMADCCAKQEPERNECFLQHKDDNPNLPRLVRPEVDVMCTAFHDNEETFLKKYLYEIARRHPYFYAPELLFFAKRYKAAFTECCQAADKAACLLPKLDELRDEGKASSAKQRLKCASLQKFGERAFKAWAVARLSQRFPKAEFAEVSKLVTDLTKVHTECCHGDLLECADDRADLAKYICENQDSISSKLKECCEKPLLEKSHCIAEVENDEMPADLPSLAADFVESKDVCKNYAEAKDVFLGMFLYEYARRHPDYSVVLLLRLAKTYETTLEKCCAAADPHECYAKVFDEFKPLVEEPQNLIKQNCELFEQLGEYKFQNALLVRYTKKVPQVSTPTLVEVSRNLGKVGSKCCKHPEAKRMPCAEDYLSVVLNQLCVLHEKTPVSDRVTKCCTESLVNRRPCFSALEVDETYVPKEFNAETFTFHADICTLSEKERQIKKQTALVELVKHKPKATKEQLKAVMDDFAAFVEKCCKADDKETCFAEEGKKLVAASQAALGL

| Structure (SMILES) | Aromatic Rings [1] | Heavy Atoms [1] | HBA [1] | HBD [1] | fu p [4] | OATP [5] | P-gp (p-glycoprotein) | fraction unbound at 8 h, 1 μg/mL (human serum albumin; [6]) | fraction unbound at 8 h, 1 μg/mL (human serum albumin; [7]) | fraction unbound at 8 h, 1 μg/mL (human serum albumin; [8]) | fraction unbound at 8 h, 1 μg/mL (human serum albumin; [9]) | Optimal Model ([3]; HSA interval 0–2%) | sum of squares, DM ([3]; HSA interval 0–2%) | sum of squares, Modified WSM ([3]; HSA interval 0–2%) | sum of squares, PTM ([3]; HSA interval 0–2%) | sum of squares, WSM ([3]; HSA interval 0–2%) | also measured |
| --- | --- | --- | --- | --- | --- | --- | --- | --- | --- | --- | --- | --- | --- | --- | --- | --- | --- |
| CN1C(=O)CN=C(c2ccccc2)c2cc(Cl)ccc21 [Diazepam] | 2 | 20 |  |  |  |  |  |  |  |  |  |  |  |  |  |  |  |
| O=C(O)Cc1ccccc1Nc1c(Cl)cccc1Cl [Diclofenac] | 2 | 19 | 3 | 2 | 0.004 | Without | Without |  |  |  |  |  |  |  |  |  | fraction unbound [2]: 0.576 to 0.872; Optimal Model ([3]; HSA interval 0–0.01%): MWSM; sum of squares, DM ([3]; HSA interval 0–0.01%): 0.0792; sum of squares, Modified WSM ([3]; HSA interval 0–0.01%): 0.0278; sum of squares, PTM ([3]; HSA interval 0–0.01%): 0.0702; sum of squares, WSM ([3]; HSA interval 0–0.01%): 0.0885; Optimal Model ([3]; HSA interval 0.025–2%): WSM; sum of squares, DM ([3]; HSA interval 0.025–2%): 0.1400; sum of squares, Modified WSM ([3]; HSA interval 0.025–2%): 0.2923; sum of squares, PTM ([3]; HSA interval 0.025–2%): 0.1790; sum of squares, WSM ([3]; HSA interval 0.025–2%): 0.1194; CLint, DM ([3]; male, Sprague-Dawley, rat): 35.94; CLint, PTM ([3]; male, Sprague-Dawley, rat): 27.63; CLint, WSM ([3]; male, Sprague-Dawley, rat): 43.68 |
| CNCCC(Oc1ccc(C(F)(F)F)cc1)c1ccccc1 (centres unmarked) [Fluoxetine] |  |  |  |  |  |  |  | 0.99 | 0.45 | 0.05 | 0.4 | WSM | 0.2062 | 5.9630 | 0.2096 | 0.1154 | fraction unbound at 8 h, 1 μg/mL (human serum albumin; Krebs buffer with […] HSA, 0.025% HSA): 0.87 |
| CC(C)c1nc(N(C)S(C)(=O)=O)nc(-c2ccc(F)cc2)c1/C=C/[C@@H](O)C[C@@H](O)CC(=O)O [Rosuvastatin] | 2 | 33 | 9 | 3 | 0.129 | With | Without | 0.99 | 0.9 | 0.29 | 0.77 | MWSM | 1.4550 | 0.2132 | 1.0670 | 1.8440 | fraction unbound at 8 h, 1 μg/mL (human serum albumin; Krebs buffer with 0.375% HSA, 0.375% HSA): 0.65; fraction unbound at 8 h, 1 μg/mL (human serum albumin; Krebs buffer with 0.5% HSA, 0.5% HSA): 0.51; fraction unbound at 8 h, 1 μg/mL (human serum albumin; Krebs buffer with 1% HSA, 1% HSA): 0.42; PSA ([1]; polar surface area, in Å2 (unit assumed)): 140.9 |
